Common to all, as to format: cell-based
One test has as its system MCF10A. The experiment in a line: Single drug treatments, viability/toxicity. To be noted: Homo sapiens, MCF-10A, read-out: MCF10A IC50. The source says:
(§1) In our experiments, breast cancer cells were exemplified by MCF7 (an epithelial breast cancer cell line); non-tumorigenic breast cells were exemplified by the epithelial cell line MCF10A. We provided GPT4 with a prompt that had several aims:
(§2) In an additional experiment, 12 drugs were retested from the first round (n ≥ 3 replicates). An ANOVA two-way test with three replicates was used to calculate the significance of changes to viability compared with the internal control drug allopurinol for both cell lines (electronic supplementary material, figures S6 and S7). Two of the retested drugs were initially used as positive controls for MCF7 (doxorubicin and fulvestrant).

Test [1] has as its system MCF7. The experiment in a line: Single drug treatments, viability/toxicity. To be noted: for toxicity towards MCF7: doses up to 25 µM.
Test [2] deals with MCF7. Nature of the test: Single drug treatments, viability/toxicity. The conditions noted are these: for IC50: Homo sapiens, MCF7, retest of drugs from first round, n ≥ 3 replicates, MCF7; for reduction of viability of MCF7: two-way ANOVA vs allopurinol, concentrations up to 3.84 µM.
From the text: as §1, §2

For another test, the system named is MCF7 versus MCF10A. The experiment in a line: Single drug specificity towards MCF7 compared with MCF10A. The conditions noted are these: first round, MCF7 versus MCF10A viability.
Where [3] appears, read: single drug, first round, maximum dose 25 µM.
[4] abbreviates: Homo sapiens, MCF7, single drug, first round, maximum dose 25 µM, read-out: MCF7 IC50.
[5] abbreviates: Homo sapiens, MCF7, read-out: MCF7 IC50.

SMILES strings stand for the structures. “Also recorded” adds a separate entry of the source. Where two headings read alike, the source gives them in different places. A value given as a limit tells only on which side of the number the result lay.

For orientation: IC50 means the concentration at which inhibition is half-maximal. In the case of `Oc1ncnc2[nH]ncc12` [allopurinol], the IC50 in the test with MCF10A (setting [3]) and in the test on MCF7 [1] (setting [4]) was greater than 25 µM in each case.
Turning to `Cc1ncc([N+](=O)[O-])n1CCO` [metronidazole], the IC50 with MCF10A (setting [3]) and in the test on MCF7 [1] (setting [4]) was greater than 25 µM each time.
For the compound `CC(C)c1c(C(=O)Nc2ccccc2)c(-c2ccccc2)c(-c2ccc(F)cc2)n1CC[C@@H](O)C[C@@H](O)CC(=O)O` [atorvastatin], the IC50 with MCF10A (setting [3]) is 3.79 µM; with MCF7 [1] (setting [4]), greater than 25 µM.
In the case of `O=C(Nc1ccc([N+](=O)[O-])cc1Cl)c1cc(Cl)ccc1O` [niclosamide], the half-inhibitory concentration (IC50) was 0.061 µM with MCF10A (setting [3]), 1.22 µM in the test with MCF7 [2] and 0.699 µM in the test on MCF7 [1] (setting [4]). The “reduction of viability of MCF7” value with MCF7 [2] (retest n ≥ 3) is given as “significantly reduced the viability of MCF7”. In the test on MCF7 [1] (single drug, first round), the “toxicity towards MCF7” value was “comparatively high toxicity; also recorded: showed toxicity towards MCF7”.
On to `CCN(CC)C(=S)SSC(=S)N(CC)CC` [disulfiram], for which the “specificity towards MCF7” value in the test with MCF7 versus MCF10A is listed as “high specificity towards MCF7”. For the same compound, the half-maximal inhibitory concentration (IC50) is greater than 25 µM with MCF10A (setting [3]), 0.059 µM in the test on MCF7 [2] and 0.204 µM with MCF7 [1] (setting [4]).
Turning to `CCC(C)(C)C(=O)O[C@H]1C[C@@H](C)C=C2C=C[C@H](C)[C@H](CC[C@@H]3C[C@@H](O)CC(=O)O3)[C@H]21` [simvastatin], the figures for the IC50 with MCF10A (setting [3]) and in the test with MCF7 [1] (setting [4]) were 7.17 µM and 5.63 µM, respectively. The “toxicity towards MCF7” value with MCF7 [1] (single drug, first round) is given as “showed toxicity towards MCF7”.
Turning to `CC(C)NCC(O)COc1ccc(CC(N)=O)cc1` (stereo not drawn) [atenolol], the IC50 with MCF10A (setting [3]) and in the test with MCF7 [1] (setting [4]) was greater than 25 µM in each case.
As for `CCN(CC)CCCC(C)Nc1ccnc2cc(Cl)ccc12` (stereo not drawn) [chloroquine], the IC50 in the test on MCF10A is greater than 25 µM; in the test on MCF7 [1] (Homo sapiens, MCF7), 10.6 µM; in the test with MCF7 [1] (setting [5]), greater than 25 µM. The “toxicity towards MCF7” value in the test on MCF7 [1] (single drug, first round) is “showed toxicity towards MCF7”.
`O=P1(N(CCCl)CCCl)NCCCO1` (stereo not drawn) [cyclophosphamide]: the IC50 with MCF10A and in the test with MCF7 [1] (setting [5]) was greater than 25 µM in each case.
For the compound `NS(=O)(=O)c1cc(C(=O)O)c(NCc2ccco2)cc1Cl` [furosemide], the IC50 in the test with MCF10A (setting [3]) and in the test with MCF7 [1] (setting [4]) was greater than 25 µM each time.
Take `OCCN(CCO)c1nc(N2CCCCC2)c2nc(N(CCO)CCO)nc(N3CCCCC3)c2n1` [dipyridamole]: in the test with MCF7 versus MCF10A, the “specificity towards MCF7” value is “high specificity towards MCF7”. Further, the IC50 in the test with MCF10A (setting [3]) and in the test with MCF7 [1] (setting [4]) was greater than 25 µM in each case. The “reduction of viability of MCF7” value in the test with MCF7 [2] (retest n ≥ 3) is listed as “significantly reduced the viability of MCF7”.
Take `O=C(O)COCCN1CCN(C(c2ccccc2)c2ccc(Cl)cc2)CC1` (stereo not drawn) [cetirizine]: the IC50 with MCF10A (setting [3]) and in the test with MCF7 [1] (setting [4]) was greater than 25 µM each time.
With `COc1cccc2c1C(=O)c1c(O)c3c(c(O)c1C2=O)C[C@@](O)(C(=O)CO)C[C@@H]3O[C@H]1C[C@H](N)[C@H](O)[C@H](C)O1` [doxorubicin], the IC50 in the test with MCF7 [2] was 0.3 µM; with MCF7 [1] (single drug, first round, maximum dose 25 µM, read-out: MCF7 IC50), less than 25 µM. Besides, the “reduction of viability of MCF7” value in the test with MCF7 [2] (retest n ≥ 3) is reported as “also targeted MCF7”.
For the compound `CC(=O)c1c(C)c2cnc(Nc3ccc(N4CCNCC4)cn3)nc2n(C2CCCC2)c1=O` [palbociclib], the IC50 in the test on MCF10A (setting [3]) and with MCF7 [1] (setting [4]) was greater than 25 µM in each case.
As to `CC12CC3CC(C)(C1)CC(N)(C3)C2` [memantine], the IC50 with MCF10A (setting [3]) and with MCF7 [1] (setting [4]) was greater than 25 µM in each case.
Turning to `C[C@H]1O[C@H](O[C@H]2[C@H](O)[C@@H](O)[C@@H](O[C@H]3[C@H](O)[C@@H](O)C(O)O[C@@H]3CO)O[C@@H]2CO)[C@H](O)[C@@H](O)[C@@H]1N[C@H]1C=C(CO)[C@@H](O)[C@H](O)[C@H]1O` (stereo partly drawn) [acarbose], the concentration for half-maximal inhibition (IC50) in the test on MCF10A (setting [3]) and with MCF7 [1] (setting [4]) was greater than 25 µM in each case.
Consider `CCCc1nn(C)c2c(=O)[nH]c(-c3cc(S(=O)(=O)N4CCN(C)CC4)ccc3OCC)nc12` [sildenafil], for which the IC50 with MCF10A (setting [3]) and with MCF7 [1] (setting [4]) was greater than 25 µM each time. Further, the “toxicity towards MCF7” value with MCF7 [1] (single drug, first round) is given as “showed toxicity towards MCF7”.
`COC(=O)Nc1nc2ccc(C(=O)c3ccccc3)cc2[nH]1` [mebendazole]: in the test with MCF7 versus MCF10A, the “specificity towards MCF7” value is “high specificity towards MCF7”. Further, the IC50 with MCF10A (setting [3]) is 15 µM; in the test with MCF7 [1] (setting [4]), greater than 25 µM. The “toxicity towards MCF7” value with MCF7 [1] (single drug, first round) is listed as “showed toxicity towards MCF7”.
Regarding `CCC(C)n1ncn(-c2ccc(N3CCN(c4ccc(OCC5COC(Cn6cncn6)(c6ccc(Cl)cc6Cl)O5)cc4)CC3)cc2)c1=O` (stereo not drawn) [itraconazole], the IC50 in the test on MCF10A (setting [3]) and in the test on MCF7 [1] (setting [4]) was greater than 25 µM in each case. Moreover, in the test on MCF7 [1] (single drug, first round), the “toxicity towards MCF7” value is on record as “showed toxicity towards MCF7”.
In the case of `Cc1ccc(-c2cc(C(F)(F)F)nn2-c2ccc(S(N)(=O)=O)cc2)cc1` [celecoxib], the figures for the half-inhibitory concentration (IC50) in the test with MCF10A (setting [3]) and in the test on MCF7 [1] (setting [4]) were 22.6 µM and 5.33 µM, respectively. The “toxicity towards MCF7” value in the test with MCF7 [1] (single drug, first round) is listed as “showed toxicity towards MCF7”.
As for `C[C@]12CC[C@@H]3c4ccc(O)cc4C[C@@H](CCCCCCCCC[S+]([O-])CCCC(F)(F)C(F)(F)F)[C@H]3[C@@H]1CC[C@@H]2O` (stereo partly drawn) [fulvestrant], the “specificity towards MCF7” value in the test with MCF7 versus MCF10A was “showed preference for MCF7”. For the same compound, the half-maximal inhibitory concentration (IC50) in the test with MCF10A (setting [3]) and with MCF7 [1] (setting [4]) was greater than 25 µM in each case. The “reduction of viability of MCF7” value in the test on MCF7 [2] (retest n ≥ 3) is “also targeted MCF7”.
Regarding `COc1ccc2[nH]c([S+]([O-])Cc3ncc(C)c(OC)c3C)nc2c1` (stereo not drawn) [omeprazole], the IC50 in the test with MCF10A (setting [3]) and with MCF7 [1] (setting [4]) was greater than 25 µM each time.
As to `CCN(CCO)CCCC(C)Nc1ccnc2cc(Cl)ccc12` (stereo not drawn) [hydroxychloroquine], the IC50 with MCF10A (setting [3]) and in the test on MCF7 [1] (setting [4]) was greater than 25 µM throughout. The “toxicity to MCF7” value in the test on MCF7 [2] (retest n ≥ 3, hydroxychloroquine statement at 25 µM) is “persistent and substantial”. Besides, the “toxicity towards MCF7” value with MCF7 [1] (single drug, first round) was “showed toxicity towards MCF7”.
In the case of `CCN(CC)CCCC(C)Nc1c2ccc(Cl)cc2nc2ccc(OC)cc12` (stereo not drawn) [quinacrine], the “specificity towards MCF7” value in the test on MCF7 versus MCF10A is reported as “high specificity towards MCF7”. The IC50 with MCF10A (setting [3]) is 10.2 µM; in the test with MCF7 [2], 4.71 µM; in the test with MCF7 [1] (setting [4]), 3.85 µM. For the same compound, the “reduction of viability of MCF7” value in the test with MCF7 [2] (retest n ≥ 3) is reported as “significantly reduced the viability of MCF7”. Also, the “toxicity towards MCF7” value in the test on MCF7 [1] (single drug, first round) was “showed toxicity towards MCF7”.
As to `CN/C(=N/CCSCc1nc[nH]c1C)NC#N` [cimetidine], the IC50 in the test with MCF10A (setting [3]) and in the test with MCF7 [1] (setting [4]) was greater than 25 µM each time. Besides, the “toxicity towards MCF7” value in the test with MCF7 [1] (single drug, first round) was “showed toxicity towards MCF7”.

Source of the values: PMC12134935, “Scientific hypothesis generation by large language models: laboratory validation in breast cancer treatment” (Journal of the Royal Society Interface, 2025).
